Source: publication PMC11279465, “Dual Inhibitors of P-gp and Carbonic Anhydrase XII (hCA XII) against Tumor Multidrug Resistance with Piperazine Scaffold” (Molecules, 2024)

Experiments:
[1] = tested on: A549/DOX cells; experiment: Intrinsic cytotoxicity (MTT); type: cell-based, human; details: compound alone at 1 µM; A549/DOX; 48 h
Protocol: (§1) All compounds were preliminarily studied to evaluate their intrinsic cytotoxicity at different concentrations (from 10 nM to 50 µM) in the parental HT29 and A549 and the resistant HT29/DOX and A549/DOX cells using the MTT assay.
(§2) The intrinsic toxicity of the studied compounds was determined by an MTT assay. K562 and K562/DOX were exposed for 72 h with compounds at 1 and 3 µM concentrations while HT29, A549, HT29/DOX and A549/DOX cells were incubated for 48 h with compounds used at different concentrations (from 10 nM to 50 µM). The percentage of growth compared to the untreated control was transformed into histograms with the GraphPad Prism 5 program. […]

[2] = tested on: HT29/DOX cells; experiment: Intrinsic cytotoxicity (MTT); type: cell-based, human; details: compound alone at 1 µM; HT29/DOX; 48 h
Protocol: as §1, §2

[3] = biological target: T1, hCA II (Homo sapiens, UniProt P00918); experiment: CA inhibition, stopped-flow CO2 hydrase assay; type: biochemical; details: stopped-flow technique; incubation time 6 h; mean of 3 assays
T1 construct: made in house
Protocol: (§3) Four hCA isoforms were used in this assay: the cytosolic hCA I and II and the tumor-associated transmembrane hCA IX and XII isoforms. Acetazolamide (AAZ) was used as a standard inhibitor.
(§4) An SX.18MV-R Applied Photophysics (Oxford, UK) stopped-flow instrument has been used to assay the catalytic/inhibition of various CA isozymes. […] Saturated CO2 solutions in water at 25 °C were used as substrate. Stock solutions of inhibitors were prepared at a concentration of 10 μM (in DMSO-water 1:1, v/v) and dilutions up to 0.01 nM were carried out with the assay buffer mentioned above. […] Inhibitor and enzyme solutions were preincubated together for 6 h at room temperature prior to assay in order to allow for the formation of the E-I complex. […] The inhibition constants were obtained by non-linear least-squares methods using the Cheng–Prusoff equation, as reported earlier, and represent the mean from at least three different determinations.

[4] = biological target: T2, hCA IX (Homo sapiens, UniProt Q16790); experiment: CA inhibition, stopped-flow CO2 hydrase assay; type: biochemical; details: stopped-flow technique; incubation time 6 h; mean of 3 assays
T2 construct: made in house
Protocol: as §3, §4

[5] = biological target: T3, hCA XII (Homo sapiens, UniProt O43570); experiment: CA inhibition, stopped-flow CO2 hydrase assay; type: biochemical; details: stopped-flow technique; incubation time 6 h; mean of 3 assays
T3 construct: made in house
Protocol: as §3, §4

[6] = biological target: T4, hCA I (Homo sapiens, UniProt P00915); experiment: CA inhibition, stopped-flow CO2 hydrase assay; type: biochemical; details: stopped-flow technique; incubation time 6 h; mean of 3 assays
T4 construct: made in house
Protocol: as §3, §4

[7] = tested on: HT29 cells; experiment: Intrinsic cytotoxicity (MTT); type: cell-based, human; details: compound alone at 1 µM; parental HT29; 48 h
Protocol: as §1
(§5) The intrinsic toxicity of the studied compounds was determined by an MTT assay. K562 and K562/DOX were exposed for 72 h with compounds at 1 and 3 µM concentrations while HT29, A549, HT29/DOX and A549/DOX cells were incubated for 48 h with compounds used at different concentrations (from 10 nM to 50 µM). The percentage of growth compared to the untreated control was transformed into histograms with the GraphPad Prism 5 program.

[8] = tested on: A549 cells; experiment: Intrinsic cytotoxicity (MTT); type: cell-based, human; details: compound alone at 1 µM; parental A549; 48 h
Protocol: as §1, §5

[9] = tested on: K562/DOX cells; experiment: Doxorubicin cytotoxicity enhancement assay (MTT); type: cell-based, human; details: 72 h
Protocol: K562 is a highly undifferentiated erythroleukemia cell line. The doxorubicin-resistant K562/DOX cells overexpress almost exclusively the transporter membrane protein P-gp.
K562/DOX cells were incubated for 72 h with different concentrations of doxorubicin in combination with 1 or 3 µM of all compounds. […] HT29, A549, HT29/DOX and A549/DOX cells were incubated for 48 h with 5 µM doxorubicin, alone or in combination with 1 or 3 µM of selected compounds. Cell viability of the cell lines was measured by the MTT assay, using a Synergy HT microplate spectrofluorometer (Bio-Tek Instruments, Winooski, VT, USA). The absorbance of untreated cells was considered 100%; results were expressed as a percentage of viable treated cells versus the control untreated cells.

[10] = tested on: K562/DOX cells; experiment: Intrinsic cytotoxicity (MTT); type: cell-based, human; details: compound alone at 3 µM, 72 h
Protocol: Compounds were first studied at 1 and 3 µM concentrations to evaluate their intrinsic cytotoxicity in both the parental K562 and the resistant K562/DOX cell lines, using the MTT assay. All compounds had no intrinsic cytotoxicity in the parental line.
as §5

[11] = tested on: HT29/DOX cells; experiment: Doxorubicin co-administration assay (MTT); type: cell-based, human; details: compound at 3 µM + doxorubicin 5 µM, 48 h
Protocol: (§6) These compounds were then assayed at 1 and 3 µM concentrations in co-administration with doxorubicin at a concentration of 5 µM, which is known to discriminate well between sensitive and resistant cells. […] Moreover, in the A549/DOX cell line, the co-administration of 1, 2, 4–6, 14 and 19, tested at 3 µM, led to the highest enhancement of doxorubicin toxicity reaching a reduction of nearly 55.0% in cell viability.
(§7) K562/DOX cells were incubated for 72 h with different concentrations of doxorubicin in combination with 1 or 3 µM of all compounds. IC50 was the concentration killing 50% of cells and was determined graphically from relative survival curves obtained by GraphPad Prism 5 software (GraphPad, San Diego, CA, USA). HT29, A549, HT29/DOX and A549/DOX cells were incubated for 48 h with 5 µM doxorubicin, alone or in combination with 1 or 3 µM of selected compounds. Cell viability of the cell lines was measured by the MTT assay, using a Synergy HT microplate spectrofluorometer (Bio-Tek Instruments, Winooski, VT, USA). The absorbance of untreated cells was considered 100%; results were expressed as a percentage of viable treated cells versus the control untreated cells.

[12] = tested on: A549/DOX cells; experiment: Doxorubicin co-administration assay (MTT); type: cell-based, human; details: compound at 3 µM + doxorubicin 5 µM, 48 h
Protocol: as §6, §7

T3 sequence (O43570 25-354): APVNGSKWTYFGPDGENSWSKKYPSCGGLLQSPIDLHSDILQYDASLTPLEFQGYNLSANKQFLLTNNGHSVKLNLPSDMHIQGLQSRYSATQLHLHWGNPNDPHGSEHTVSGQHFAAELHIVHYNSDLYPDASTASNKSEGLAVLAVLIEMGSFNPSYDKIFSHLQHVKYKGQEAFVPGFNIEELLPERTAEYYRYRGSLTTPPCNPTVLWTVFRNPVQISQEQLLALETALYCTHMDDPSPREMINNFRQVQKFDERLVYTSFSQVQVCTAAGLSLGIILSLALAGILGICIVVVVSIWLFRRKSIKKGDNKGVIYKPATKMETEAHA
T4 sequence (P00915 whole entry): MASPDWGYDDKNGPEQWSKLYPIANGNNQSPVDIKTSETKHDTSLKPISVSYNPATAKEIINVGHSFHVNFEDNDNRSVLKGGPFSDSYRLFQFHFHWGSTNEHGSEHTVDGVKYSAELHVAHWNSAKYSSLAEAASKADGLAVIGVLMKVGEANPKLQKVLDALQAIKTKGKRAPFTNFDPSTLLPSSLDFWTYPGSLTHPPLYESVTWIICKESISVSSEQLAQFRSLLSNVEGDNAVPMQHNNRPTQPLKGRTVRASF

SMILES | Ki [3] | Ki [4] | Ki [5] | Ki [6] | toxicity [1] | toxicity [2] | toxicity [7] | toxicity [8] | RF (Reversal Fold: IC50 of doxorubicin alone / in presence of modulator) ([9]; compound at 1 µM) | RF (Reversal Fold: IC50 of doxorubicin alone / in presence of modulator) ([9]; compound at 3 µM) | reduction of cellular viability [10] | reduction in cell viability [11] | reduction in cell viability [12]
COc1ccc(C(CCCN2CCN(CCCCOc3ccc4oc(=O)cc(C)c4c3)CC2)c2ccc(OC)cc2)cc1 [Compound 36, 6-(4-(4-(4,4-Bis(4-methoxyphenyl)butyl)piperazin-1-yl)butoxy)-4-methyl-2H-chromen-2-one] | > 10 µM | 0.332 µM | 0.298 µM | > 10 µM | ≥ 35% | ≥ 35% | ≥ 35% | ≥ 35% | – | – | – | – | –
COc1cc(/C=C/CN2CCN(CCCOc3ccc4oc(=O)ccc4c3)CC2)cc(OC)c1OC [Compound 8, (E)-6-(3-(4-(3-(3,4,5-Trimethoxyphenyl)allyl)piperazin-1-yl)propoxy)-2H-chromen-2-one] | > 10 µM | 0.0407 µM | 0.0229 µM | > 10 µM | ≥ 35% | ≥ 35% | – | – | 2.0 | 2.0 | – | – | –
COc1ccc(C(CCCN2CCN(CCCOc3ccc4c(C)cc(=O)oc4c3)CC2)c2ccc(OC)cc2)cc1 [Compound 29, 7-(3-(4-(4,4-Bis(4-methoxyphenyl)butyl)piperazin-1-yl)propoxy)-4-methyl-2H-chromen-2-one] | > 10 µM | 0.149 µM | 0.0915 µM | > 10 µM | ≥ 35% | ≥ 35% | ≥ 35% | ≥ 35% | – | – | – | – | –
COc1cc(/C=C/CN2CCN(CCCCOc3ccc4oc(=O)ccc4c3)CC2)cc(OC)c1OC [Compound 9, (E)-6-(4-(4-(3-(3,4,5-Trimethoxyphenyl)allyl)piperazin-1-yl)butoxy)-2H-chromen-2-one] | > 10 µM | 0.0221 µM | 0.0073 µM | > 10 µM | – | – | – | – | 2.5 | 1.3 | 30–50% | – | –
COc1ccc(C(CCCN2CCN(CCCOc3ccc4oc(=O)cc(C)c4c3)CC2)c2ccc(OC)cc2)cc1 [Compound 35, 6-(3-(4-(4,4-Bis(4-methoxyphenyl)butyl)piperazin-1-yl)propoxy)-4-methyl-2H-chromen-2-one] | > 10 µM | 0.523 µM | 0.335 µM | > 10 µM | ≥ 35% | ≥ 35% | ≥ 35% | ≥ 35% | – | 14.3 | – | – | –
COc1cc(CN2CCN(CCOc3ccc4oc(=O)ccc4c3)CC2)cc(OC)c1OC [Compound 19, 6-(2-(4-(3,4,5-Trimethoxybenzyl)piperazin-1-yl)ethoxy)-2H-chromen-2-one] | > 10 µM | 0.0847 µM | 0.0058 µM | > 10 µM | – | – | – | – | 1.4 | 2.2 | – | 65.0% | ~55.0%
COc1cc(CN2CCN(CCCOc3ccc4ccc(=O)oc4c3)CC2)cc(OC)c1OC [Compound 14, 7-(3-(4-(3,4,5-Trimethoxybenzyl)piperazin-1-yl)propoxy)-2H-chromen-2-one] | > 10 µM | 0.0401 µM | 0.0136 µM | > 10 µM | – | – | – | – | 1.0 | 3.4 | – | 65.0% | ~55.0%
COc1cc(/C=C/CN2CCN(CCCCOc3ccc4oc(=O)cc(C)c4c3)CC2)cc(OC)c1OC [Compound 12, (E)-4-Methyl-6-(4-(4-(3-(3,4,5-trimethoxyphenyl)allyl)piperazin-1-yl)butoxy)-2H-chromen-2-one] | > 10 µM | 0.104 µM | 0.14 µM | > 10 µM | ≥ 35% | ≥ 35% | ≥ 35% | ≥ 35% | 1.9 | 2.7 | – | – | –
COc1cc(CN2CCN(CCCCOc3ccc4ccc(=O)oc4c3)CC2)cc(OC)c1OC [Compound 15, 7-(4-(4-(3,4,5-Trimethoxybenzyl)piperazin-1-yl)butoxy)-2H-chromen-2-one] | > 10 µM | 0.029 µM | 0.0429 µM | > 10 µM | ≥ 35% | ≥ 35% | – | – | 1.2 | 2.3 | – | – | –

Continued, in another order:

Ki [3] | Ki [4] | Ki [5] | Ki [6] | SMILES | toxicity [1] | toxicity [2] | toxicity [7] | toxicity [8] | RF (Reversal Fold: IC50 of doxorubicin alone / in presence of modulator) ([9]; compound at 1 µM) | RF (Reversal Fold: IC50 of doxorubicin alone / in presence of modulator) ([9]; compound at 3 µM) | reduction of cellular viability [10] | reduction in cell viability [11] | reduction in cell viability [12]
> 10 µM | 0.0347 µM | 0.0272 µM | > 10 µM | COc1cc(/C=C/CN2CCN(CCCOc3ccc4c(C)cc(=O)oc4c3)CC2)cc(OC)c1OC [Compound 5, (E)-4-Methyl-7-(3-(4-(3-(3,4,5-trimethoxyphenyl)allyl)piperazin-1-yl)propoxy)-2H-chromen-2-one] | – | – | – | – | 5.5 | 27.6 | – | 65.0% | –
> 10 µM | 0.0626 µM | 0.0294 µM | > 10 µM | COc1cc(/C=C/CN2CCN(CCCOc3ccc4ccc(=O)oc4c3)CC2)cc(OC)c1OC [Compound 2, (E)-7-(3-(4-(3-(3,4,5-Trimethoxyphenyl)allyl)piperazin-1-yl)propoxy)-2H-chromen-2-one] | – | – | – | – | 3.8 | 4.5 | – | – | ~55.0%
> 10 µM | 0.0252 µM | 0.0328 µM | > 10 µM | COc1cc(/C=C/CN2CCN(CCOc3ccc4c(C)cc(=O)oc4c3)CC2)cc(OC)c1OC [Compound 4, (E)-4-Methyl-7-(2-(4-(3-(3,4,5-trimethoxyphenyl)allyl)piperazin-1-yl)ethoxy)-2H-chromen-2-one] | – | – | – | – | 5.7 | 15.8 | – | 65.0% | –
> 10 µM | 0.0513 µM | 0.013 µM | > 10 µM | COc1cc(/C=C/CN2CCN(CCOc3ccc4ccc(=O)oc4c3)CC2)cc(OC)c1OC [Compound 1, (E)-7-(2-(4-(3-(3,4,5-Trimethoxyphenyl)allyl)piperazin-1-yl)ethoxy)-2H-chromen-2-one] | – | – | – | – | 1.6 | 2.3 | – | – | ~55.0%
